Measurements: patent EP4702986A1, “POLYPEPTIDE AND USE THEREOF” (Biocells (Beijing) Biotech Co., Ltd., priority 2023, dated 2024)
Read-outs that look alike come from different tables or passages of the source. One block for each compound: values may come before it. Numbered stars: 1 amine (or outer) side, 2 acyl side, 3 side chain; on linkers, the order of the positions; unused ones are H or OH. Bridge positions count the residues as written; N and C are the ends. Square brackets hold non-standard residues; d marks the D form. Side chains are listed from the residue outwards. Peptide text beside a SMILES is read from it. * marks the point of attachment. C18 diacid = O=C(O)CCCCCCCCCCCCCCCCC(=O)*; γGlu = O=C(O)[C@H](CCC(=O)[*:2])N[*:1]; Fumaryl(OMe) = COC(=O)/C=C/C(=O)*; Suc = O=C(CCC(=O)[*:2])[*:1]; Orn = NCCC[C@H](N)C(=O)O; Dab = NCC[C@H](N)C(=O)O; AEEA = NCCOCCOCC(=O)O

Biological target: T1, human ETA receptor (Homo sapiens, UniProt P25101)
T1 construct: expressed in transfected cells; host or cells: 293T-17 cells, transient transfection
T1 sequence (P25101 21-427): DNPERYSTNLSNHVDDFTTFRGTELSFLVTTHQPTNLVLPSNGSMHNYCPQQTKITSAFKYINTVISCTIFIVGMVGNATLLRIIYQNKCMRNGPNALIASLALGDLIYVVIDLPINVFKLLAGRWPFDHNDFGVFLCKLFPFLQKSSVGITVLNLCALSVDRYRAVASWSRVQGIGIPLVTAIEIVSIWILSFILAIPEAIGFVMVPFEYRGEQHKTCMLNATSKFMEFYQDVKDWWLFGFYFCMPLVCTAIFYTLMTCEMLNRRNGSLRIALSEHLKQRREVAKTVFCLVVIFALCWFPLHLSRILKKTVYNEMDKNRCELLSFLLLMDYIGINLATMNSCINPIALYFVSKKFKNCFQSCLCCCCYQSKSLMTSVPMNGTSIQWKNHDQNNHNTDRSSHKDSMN
Assay: Selectivity of polypeptides on human ETA receptor (IP-One Gq kit, % of positive control ET1)
Type: cell-based
Conditions: read-out: hETAR agonist activity, percentage of activity relative to ET1
Experimental: 293T-17 cells were seeded at a density of 650,000 cells per well in a 6-well plate and cultured overnight in an incubator at 37°C and 5% CO2. Afterward, the cells were transfected with an expression vector, PCDNA3.1-hETA which contained a human ETA receptor gene, at a plasmid concentration of 2.5 µg per well. The cells were further cultured for 48 hours, and green fluorescence expression was observed under a fluorescence microscope. The cells were then digested with trypsin and counted. The activity of compounds on the human ETA receptor was determined with the IP-One Gq kit from Cisbio Bioassays. The cells were suspended in Stim Buffer provided in the kit and the cell suspension was added to a 96-well detection plate at 7 µL cell suspension (containing 30,000 cells) per well. The polypeptides to be screened for activity (prepared according to the Preparation Example of the invention) and polypeptide human endothelin ET1 as positive control were dissolved in Stim B to be at a concentration of 2×, and 7 µL was added to the test cells, while 7 µL of PBS solution was added to the cells in the negative control wells. Human endothelin ET1 (ET1: […] (C1-C15,C3-C11)) set forth in SEQ ID No. 85 was used as the positive control polypeptide. The plate was sealed and incubated at 37°C for 1 h in a cell culture incubator. Detection wells, positive control wells, and PBS control wells were each added with 3 µL of IP1 d2 working solution and 3 µL of IP1 Tb cryptotate Antibody working solution. The plate was sealed and incubated in the dark at room temperature (25°C±5°C) for 1 h. The plate seal was removed, and the […] at 665 nm and 620 nm was measured with an ID5 microplate reader. The ratio of the acceptor emission signal to the donor emission signal, i.e., the value of (signal at 665 nm/signal at 620 nm)×10^4, was calculated for each well. With F3 representing the average value of values of signal at 665 nm/signal at 620 nm determined for the test sample at a specific concentration, F5 representing the average value of values of signal at 665 nm/signal at 620 nm determined for the positive control human endothelin ET1 at the same concentration, and T3 representing the average value of values of signal at 665 nm/signal at 620 nm determined for the PBS negative control, the percentage of activity of the test polypeptide sample relative to the positive control sample ET1 = (F3-T3)×100/(F5-T3) (see Table 6). hETA sequence (NCBI accession number L06622.1).

SMILES: CC[C@H](C)[C@H](NC(=O)[C@H](CC(=O)O)NC(=O)[C@H](CCCN)NC(=O)[C@H](Cc1c[nH]cn1)NC(=O)[C@H](C)NC(=O)[C@H](Cc1ccccc1)NC(=O)[C@H](Cc1ccc(O)cc1)NC(=O)[C@@H](NC(=O)[C@H](CCC(=O)O)NC(=O)[C@H](CCC(=O)O)NC(=O)[C@H](CCC(=O)O)NC(=O)[C@H](CC(=O)O)NC(=O)CCC(=O)O)C(C)C)C(=O)N[C@H](C(=O)N[C@@H](Cc1c[nH]c2ccccc12)C(=O)O)[C@@H](C)CC [BX-53, Suc-DEEEVYFAHOrnDIIW] (Suc-DEEEVYFAH[Orn]DIIW-OH)
activation at 0.01 µM: -17.6%
activation at 0.1 µM: -17%

activation at 1 µM: 14.7%
SMILES: CC[C@H](C)[C@H](NC(=O)[C@H](CC(=O)O)NC(=O)[C@H](CCCCN)NC(=O)[C@H](Cc1c[nH]cn1)NC(=O)[C@H](C)NC(=O)[C@H](Cc1ccccc1)NC(=O)[C@H](Cc1ccc(O)cc1)NC(=O)[C@@H](NC(=O)[C@H](CCC(=O)O)NC(=O)[C@H](CCC(=O)O)NC(=O)[C@H](CCC(=O)O)NC(=O)[C@H](CC(=O)O)NC(=O)CCC(=O)O)C(C)C)C(=O)N[C@H](C(=O)N[C@@H](Cc1c[nH]c2ccccc12)C(=O)O)[C@@H](C)CC [BX-45] (Suc-DEEEVYFAHKDIIW-OH)

activation at 0.01 µM (@10nM): -20.9%
activation at 0.1 µM (@100nM): -15.4%
SMILES: CC[C@H](C)[C@H](NC(=O)[C@H](CC(=O)O)NC(=O)[C@H](CC(C)C)NC(=O)[C@H](Cc1c[nH]cn1)NC(=O)[C@H](C)NC(=O)[C@H](Cc1ccccc1)NC(=O)[C@H](Cc1ccc(O)cc1)NC(=O)[C@@H]1CCNC(=O)CC[C@H](NC(=O)[C@H](CC(=O)O)NC(=O)CCC(=O)O)C(=O)N[C@@H](CCC(=O)O)C(=O)N[C@@H](C)C(=O)N1)C(=O)N[C@H](C(=O)N[C@@H](Cc1c[nH]c2ccccc12)C(=O)O)[C@@H](C)CC [BX-49] (Suc-DEEA[Dab]YFAHLDIIW-OH; lactam 2-5)

activation at 1 µM: 13.5%
activation at 10 µM (@10µM): 17%
SMILES: CC[C@H](C)[C@H](NC(=O)[C@H](CC(=O)O)NC(=O)[C@H](CC(C)C)NC(=O)[C@H](Cc1c[nH]cn1)NC(=O)[C@H](C)NC(=O)[C@H](Cc1ccccc1)NC(=O)[C@H](Cc1ccc(O)cc1)NC(=O)[C@H](CCCCN)NC(=O)[C@H](C)NC(=O)[C@H](CCC(=O)O)NC(=O)[C@H](CCC(=O)O)NC(=O)[C@H](CC(=O)O)NC(=O)CCC(=O)O)C(=O)N[C@H](C(=O)N[C@@H](Cc1c[nH]c2ccccc12)C(=O)O)[C@@H](C)CC [BX-43] (Suc-DEEAKYFAHLDIIW-OH)

SMILES: CC[C@H](C)[C@H](NC(=O)[C@H](CC(=O)O)NC(=O)[C@H](CCCCNC(=O)CC[C@H](NC(=O)COCCOCCNC(=O)COCCOCCNC(=O)CCCCCCCCCCCCCCCCC(=O)O)C(=O)O)NC(=O)[C@H](Cc1c[nH]cn1)NC(=O)[C@H](C)NC(=O)[C@H](Cc1ccccc1)NC(=O)[C@H](Cc1ccc(O)cc1)NC(=O)[C@@H](NC(=O)[C@H](C)NC(=O)[C@H](CCC(=O)O)NC(=O)[C@H](CCC(=O)O)NC(=O)[C@H](CC(=O)O)NC(=O)CCC(=O)O)C(C)C)C(=O)N[C@H](C(=O)N[C@@H](Cc1c[nH]c2ccccc12)C(=O)O)[C@@H](C)CC [BX-74] (Suc-DEEAVYFAHK([γGlu-AEEA-AEEA-C18 diacid])DIIW-OH)
activation at 10 µM: -2.64%
activation at 100 µM: -13.5%

activation at 10 µM (@10µM): -5.95%
activation at 100 µM (@100µM): -2.01%
SMILES: CC[C@H](C)[C@H](NC(=O)[C@H](CC(=O)O)NC(=O)[C@H](CCCCN)NC(=O)[C@H](Cc1c[nH]cn1)NC(=O)[C@H](C)NC(=O)[C@H](Cc1ccccc1)NC(=O)[C@H](Cc1ccc(O)cc1)NC(=O)[C@@H](NC(=O)[C@H](CCC(=O)O)NC(=O)[C@H](CCC(=O)O)NC(=O)[C@H](CCC(=O)O)NC(=O)[C@H](CC(=O)O)NC(=O)/C=C/C(=O)OC)C(C)C)C(=O)N[C@H](C(=O)N[C@@H](Cc1c[nH]c2ccccc12)C(=O)O)[C@@H](C)CC [BX-58] ({Fumaryl(OMe)}-DEEEVYFAHKDIIW-OH)

SMILES: CC[C@H](C)[C@H](NC(=O)[C@H](CC(=O)O)NC(=O)[C@@H]1CCCCNC(=O)CC[C@H](NC(=O)[C@H](CCC(=O)O)NC(=O)[C@H](CCC(=O)O)NC(=O)[C@H](CC(=O)O)NC(=O)CCC(=O)O)C(=O)N[C@@H](C(C)C)C(=O)N[C@@H](Cc2ccc(O)cc2)C(=O)N[C@@H](Cc2ccccc2)C(=O)N[C@@H](C)C(=O)N[C@@H](Cc2c[nH]cn2)C(=O)N1)C(=O)N[C@H](C(=O)N[C@@H](Cc1c[nH]c2ccccc12)C(=O)O)[C@@H](C)CC [BX-50, Suc-DEE cyclo(EVYFAHK)DIIW] (Suc-DEEEVYFAHKDIIW-OH; lactam 4-10)
activation at 0.01 µM: 10.1%
activation at 0.1 µM: -6.92%

activation at 10 µM (@10µM): -18.5%
activation at 100 µM (@100µM): -8.66%
SMILES: CC[C@H](C)[C@H](NC(=O)[C@H](CC(=O)O)NC(=O)[C@H](CCCCNC(=O)COCCOCCNC(=O)COCCOCCNC(=O)CC[C@H](NC(=O)CCCCCCCCCCCCCCCCC(=O)O)C(=O)O)NC(=O)[C@H](Cc1c[nH]cn1)NC(=O)[C@H](C)NC(=O)[C@H](Cc1ccccc1)NC(=O)[C@H](Cc1ccc(O)cc1)NC(=O)[C@@H](NC(=O)[C@H](CCC(=O)O)NC(=O)[C@H](CCC(=O)O)NC(=O)[C@H](CCC(=O)O)NC(=O)[C@H](CC(=O)O)NC(=O)CCC(=O)O)C(C)C)C(=O)N[C@H](C(=O)N[C@@H](Cc1c[nH]c2ccccc12)C(=O)O)[C@@H](C)CC [BX-54] (Suc-DEEEVYFAHK([AEEA-AEEA-γGlu-C18 diacid])DIIW-OH)
